Experimental data as given in patent US20100056519A1, “COMPOSITION AND METHOD FOR REDUCING PLATELET ACTIVATION AND FOR THE TREATMENT OF THROMBOTIC EVENTS” (priority 2008, published 2010).

What was measured:
Assay type in all cases: cell-based, human
platelets = assay: Ultegra Rapid Platelet-Function Assay (RPFA-TRAP); conditions: for Platelet Activation Units (PAU): Mean ± SD
Protocol: (§1) The methodology employed was conventional aggregation induced by 5 μM ADP, 1 μg/ml collagen, 10 μM TRAP, whole blood aggregation with 1 μg/ml collagen, Ultegra, and PFA-100 Analyzers, expression of 14 intact, and TRAP-stimulated major receptors by whole blood flow cytometry were utilized to assess platelet activity after preincubation with escalating concentrations of E5555 (20 ng/ml, 50 ng/ml, and 100 ng/ml). The experiments were performed in healthy volunteers, CAD patients treated with ASA, and CAD patients treated with ASA and clopidogrel combination (n=10, for each group).
(§2) An Informed Consent was obtained from all volunteers. Drug users were excluded from data analysis. The study was approved by Quorum Institutional Review Board. All subjects underwent blood sampling after at least 30 minutes of rest and two or more hours of fasting. Blood (28 ml) was drawn between 8 and 10 a.m. in order to avoid any diurnal influence and sampled from an antecubital vein using a 21-gauge butterfly needle containing 3.2% sodium citrate (1:9 volume) after having discarded the first 1.5 ml of free running blood. Four Vacutainer tubes (7.0 ml) were collected for a total of 28 ml of whole blood-citrate mixture from each study participant. Chronologically, blood samples were delivered to the core laboratory facility within 45 minutes after drawing. Then all tubes of blood-citrate mixture were pooled. One portion of pooled blood (5 ml) was kept as an internal control and pretreated with the vehicle. The remaining blood (23 ml) was used for the in vitro exposure to E5555 at concentrations of 20 ng/ml, 50 ng/ml, and 100 ng/ml. […] The platelet aggregation studies, Rapid Analyzers measures, and flow cytometry preparations were initiated within no more than 110 minutes following the blood draw, incubation with the drug, and preparation of the samples.
Whole blood aggregation was determined using a Chronolog device 592A. The whole blood-citrate mixture was diluted 1:1 with 0.5 ml phosphate buffered saline and gently swirled. The sample then was allowed to warm to 37° C. for 5 minutes then transferred to the assay well. The electrode was then placed in the cuvette and the sample was stimulated with 1 μg/ml collagen. The change in electrical impedance was digitally recorded. Each whole blood sample was analyzed utilizing 2 different clinical devices: • (1) a Rapid Platelet-Function Assay (Ultegra®) (Accumetrics, Inc., San Diego, Calif.), which is a rapid platelet-function assay aspirin cartridge test with TRAP used as agonist. Polystyrene beads coated with fibrinogen are placed in a cartridge along with the peptide that activates thrombin receptor. Anticoagulated whole blood was added to the cartridge, and agglutination between platelets and coated beads was recorded. The data mirrors turbidimetric platelet aggregation and presumably reflects platelet glycoprotein IIb/IIIa blockade. Ultegra RPFA-TRAP Assay results were reported as Platelet Activation Units (PAU); and • (2) Platelet-Function Analyzer PFA-100 ™ (Dade Behring, Deerfield Ill.), which is a high shear-inducing analyzer that simulates primary hemostasis after injury to a small vessel under flow conditions. The device provides a constant negative pressure that aspirates whole blood, which comes into contact with the collagen, coated membrane and then passes through the aperture. The time required to obtain occlusion of the aperture is digitally recorded. The time to aperture occlusion (the closure time) is recorded in seconds and is inversely related to the degree of shear-induced platelet activation. We used ADP/Collagen cartridges in the index study. Both PFA-100 and Ultegra assays were performed in duplicate. An electronic quality control test was performed on each instrument daily prior to performing any patient samples.

LAMP-1 (CD107a) = assay: Unstimulated whole blood flow cytometry, LAMP-1; conditions: for LAMP-1 (CD107a), Mean Fluorescence Intensity: unstimulated, Mean ± SD
Protocol: as §1, §2
(§3) Formation of platelet-leukocyte aggregates was assessed by dual labeling with pan-platelet marker (CD151), and then with CD14, the macrophage receptor for endotoxin lipopolysaccharides (PharMingen, and Coulter, San Diego, Calif., USA). The tubes were then covered with aluminum foil and incubated at 37° C. for 40 minutes with gentle rotation. After incubation, samples were immediately analyzed on a Becton Dickinson FACScan flow cytometer. The instrument was set up to measure forward light scatter, and FITC fluorescence. All parameters were collected using four-decade logarithmic amplification. The data was retrieved in list mode files and then analyzed. P selectin was expressed as percent positive cells. Other antigens were expressed as log mean fluorescence intensity.

PECAM-1 (CD31) = assay: TRAP-stimulated whole blood flow cytometry, PECAM-1; conditions: Mean ± SD
Protocol: as §1, §2, §3
(§4) For flow cytometry (TRAP-stimulated) all of the above flow cytometry experiments were identically repeated utilizing prestimulation with 10 μmol/L TRAP for 5 minutes at 37° C. To determine statistics, a Paired Sign Test was used to define significance of differences between vehicle and E5555-treated groups. The Mann-Whitney U test was used to analyze nonparametric data. Normally distributed data were expressed as mean±standard error (m±SE), and skewed data as median (range). All P-values were two sided. All analysis was performed using the SPSS v9.0 program (SPSS Inc., Chicago, Ill.).

GPIIb antigen (CD41) = assay: TRAP-stimulated whole blood flow cytometry, GPIIb antigen; conditions: Mean ± SD
Protocol: as §1, §2, §3, §4

GP37 (CD165) = assay: Unstimulated whole blood flow cytometry, GP37; conditions: Mean ± SD
Protocol: as §1, §2, §3

[1] = E5555 20 ng/ml, Patients (ASA + C)
[2] = E5555 50 ng/ml, Patients (ASA + C)
[3] = E5555 100 ng/ml, Patients (ASA + C)
[4] = E5555 100 ng/ml, Patients (ASA)

## Br.CCOc1cc2c(c(F)c1OCC)C(=N)N(CC(=O)c1cc(N3CCOCC3)c(OC)c(C(C)(C)C)c1)C2 [E5555, 1-(3-tert-butyl-4-methoxy-5-morpholinophenyl)-2-(5,6-diethoxy-7-fluoro-1-imino-1,3-dihydro-2H-isoindol-2-yl)ethanone hydrobromide]
platelets; [1]
  Platelet Activation Units (PAU): 115 ± 21 PAU
platelets; E5555 20 ng/ml, Patients (ASA)
  Platelet Activation Units (PAU): 118 ± 12 PAU
platelets; E5555 20 ng/ml, Volunteers
  Platelet Activation Units (PAU): 270 ± 30 PAU
platelets; [2]
  Platelet Activation Units (PAU): 108 ± 20 PAU
platelets; E5555 50 ng/ml, Patients (ASA)
  Platelet Activation Units (PAU): 114 ± 11 PAU
platelets; E5555 50 ng/ml, Volunteers
  Platelet Activation Units (PAU): 126 ± 20 PAU
platelets; [3]
  Platelet Activation Units (PAU): 112 ± 18 PAU
platelets; [4]
  Platelet Activation Units (PAU): 113 ± 14 PAU
platelets; E5555 100 ng/ml, Volunteers
  Platelet Activation Units (PAU): 117 ± 21 PAU
platelets; overall summary
  Platelet Analyzer readings, fibrinogen binding, effect in words: diminished fibrinogen binding
platelets; volunteers and CAD patients on ASA alone or with clopidogrel
  Ultegra Analyzer PAU, effect in words: reduction of PAU
LAMP-1 (CD107a); overall summary, stimulation not stated
  LAMP-1, effect in words: not affected
LAMP-1 (CD107a); [1]
  LAMP-1 (CD107a), Mean Fluorescence Intensity: 4.2 ± 1.6 MFI
LAMP-1 (CD107a); E5555 20 ng/ml, Patients (ASA)
  LAMP-1 (CD107a), Mean Fluorescence Intensity: 4.3 ± 1.2 MFI
LAMP-1 (CD107a); E5555 20 ng/ml, Volunteers
  LAMP-1 (CD107a), Mean Fluorescence Intensity: 4.7 ± 0.5 MFI
LAMP-1 (CD107a); [2]
  LAMP-1 (CD107a), Mean Fluorescence Intensity: 4.7 ± 1.3 MFI
LAMP-1 (CD107a); E5555 50 ng/ml, Patients (ASA)
  LAMP-1 (CD107a), Mean Fluorescence Intensity: 5.0 ± 1.7 MFI
LAMP-1 (CD107a); E5555 50 ng/ml, Volunteers
  LAMP-1 (CD107a), Mean Fluorescence Intensity: 4.6 ± 0.6 MFI
LAMP-1 (CD107a); [3]
  LAMP-1 (CD107a), Mean Fluorescence Intensity: 4.8 ± 1.4 MFI
LAMP-1 (CD107a); [4]
  LAMP-1 (CD107a), Mean Fluorescence Intensity: 4.3 ± 1.5 MFI
LAMP-1 (CD107a); E5555 100 ng/ml, Volunteers
  LAMP-1 (CD107a), Mean Fluorescence Intensity: 4.4 ± 1.0 MFI
PECAM-1 (CD31); [1]
  PECAM-1 (CD31), Mean Fluorescence Intensity: 58 ± 9 MFI
PECAM-1 (CD31); E5555 20 ng/ml, Patients (ASA)
  PECAM-1 (CD31), Mean Fluorescence Intensity: 50 ± 6 MFI
PECAM-1 (CD31); E5555 20 ng/ml, Volunteers
  PECAM-1 (CD31), Mean Fluorescence Intensity: 60 ± 9 MFI
PECAM-1 (CD31); [2]
  PECAM-1 (CD31), Mean Fluorescence Intensity: 60 ± 7 MFI
PECAM-1 (CD31); E5555 50 ng/ml, Patients (ASA)
  PECAM-1 (CD31), Mean Fluorescence Intensity: 54 ± 9 MFI
PECAM-1 (CD31); E5555 50 ng/ml, Volunteers
  PECAM-1 (CD31), Mean Fluorescence Intensity: 55 ± 10 MFI
PECAM-1 (CD31); [3]
  PECAM-1 (CD31), Mean Fluorescence Intensity: 57 ± 11 MFI
PECAM-1 (CD31); [4]
  PECAM-1 (CD31), Mean Fluorescence Intensity: 52 ± 12 MFI
PECAM-1 (CD31); E5555 100 ng/ml, Volunteers
  PECAM-1 (CD31), Mean Fluorescence Intensity: 60 ± 7 MFI
GPIIb antigen (CD41); [1]
  GPIIb antigen (CD41), Mean Fluorescence Intensity: 328 ± 41 MFI
GPIIb antigen (CD41); E5555 20 ng/ml, Patients (ASA)
  GPIIb antigen (CD41), Mean Fluorescence Intensity: 471 ± 38 MFI
GPIIb antigen (CD41); E5555 20 ng/ml, Volunteers
  GPIIb antigen (CD41), Mean Fluorescence Intensity: 504 ± 18 MFI
GPIIb antigen (CD41); [2]
  GPIIb antigen (CD41), Mean Fluorescence Intensity: 209 ± 30 MFI
GPIIb antigen (CD41); E5555 50 ng/ml, Patients (ASA)
  GPIIb antigen (CD41), Mean Fluorescence Intensity: 376 ± 35 MFI
GPIIb antigen (CD41); E5555 50 ng/ml, Volunteers
  GPIIb antigen (CD41), Mean Fluorescence Intensity: 390 ± 31 MFI
GPIIb antigen (CD41); [3]
  GPIIb antigen (CD41), Mean Fluorescence Intensity: 176 ± 19 MFI
GPIIb antigen (CD41); [4]
  GPIIb antigen (CD41), Mean Fluorescence Intensity: 304 ± 40 MFI
GPIIb antigen (CD41); E5555 100 ng/ml, Volunteers
  GPIIb antigen (CD41), Mean Fluorescence Intensity: 364 ± 37 MFI
GP37 (CD165); [1]
  GP37 (CD165), Mean Fluorescence Intensity: 25 ± 11 MFI
GP37 (CD165); E5555 20 ng/ml, Patients (ASA)
  GP37 (CD165), Mean Fluorescence Intensity: 30 ± 7 MFI
GP37 (CD165); E5555 20 ng/ml, Volunteers
  GP37 (CD165), Mean Fluorescence Intensity: 27 ± 8 MFI
GP37 (CD165); [2]
  GP37 (CD165), Mean Fluorescence Intensity: 28 ± 10 MFI
GP37 (CD165); E5555 50 ng/ml, Patients (ASA)
  GP37 (CD165), Mean Fluorescence Intensity: 27 ± 12 MFI
GP37 (CD165); E5555 50 ng/ml, Volunteers
  GP37 (CD165), Mean Fluorescence Intensity: 28 ± 7 MFI
GP37 (CD165); [3]
  GP37 (CD165), Mean Fluorescence Intensity: 25 ± 12 MFI
GP37 (CD165); [4]
  GP37 (CD165), Mean Fluorescence Intensity: 28 ± 11 MFI
GP37 (CD165); E5555 100 ng/ml, Volunteers
  GP37 (CD165), Mean Fluorescence Intensity: 26 ± 6 MFI
